Where “and” joins values, the source holds several entries; their conditions need not be identical. Equal values may be shown once.
Legend:
[1] = tested on: SH-SY5Y cells; assay: ROS intracellular levels, carboxy-H2DCFDA; assay type: cell-based, human
Protocol: Next, the capacity of S. tubulifera metabolites to decrease ROS intracellular levels was evaluated (Figure 4). […] Regarding the oxidative stress model, H2O2 augmented the levels of oxidant molecules up to 125.1 ± 2.4% (p < 0.01) and the known antioxidant Vit E, used as a positive control, induced a reduction in ROS release of 24% with respect to cells treated only with H2O2 (p < 0.05).
Figure 4 ROS intracellular levels after treatment with compounds. Furanoditerpenes were added for 6 h in the absence and presence of 150 μM H2O2. Then, the ROS content was measured with the fluorescent dye 5-(and-6)-carboxy-2′,7′-dichlorodihydrofluorescein diacetate (carboxy-H2DCFDA). Results from (a) 1, (b) 2, (c) 3, (d) 4, and (e) 5. Vitamin E (Vit E) at 25 μM was used as a positive control. Data expressed as the percentage of untreated control cells. Mean ± SEM of three experiments performed in triplicate. Statistical differences determined by one-way ANOVA test followed by Dunnett’s post hoc test. ^##p < 0.01 compared to control cells. *p < 0.05, **p < 0.01, and ***p < 0.01 compared to H2O2 control.
(§1) For these experiments, cells were seeded in 384-well plates and treated as described above. All of the assays were carried out as previously described.[15]
The fluorescent dye 5-(and-6)-carboxy-2′,7′-dichlorodihydrofluorescein diacetate (carboxy-H2DCFDA) was used to evaluate ROS levels. After treatment with compounds and H2O2, cells were washed twice with serum-free medium. Next, cells were loaded with 20 μM carboxy-H2DCFDA dissolved in serum-free medium, and the plate was incubated for 1 h at 37 °C and 300 rpm. Then, 100 μL of PBS were added to each well for 30 min at 37 °C and 300 rpm. After this incubation, the fluorescence was read at […].

[2] = tested on: SH-SY5Y cells; assay: GSH content, Thiol Tracker Violet; assay type: cell-based, human; conditions: for GSH content: 150 μM H2O2, 6 h, % of untreated control cells
Protocol: To confirm the antioxidant properties of S. tubulifera compounds, the levels of the most important nonenzymatic antioxidant of cells, glutathione (GSH), were assessed. […] Regarding diterpene 2, an increase in the nonenzymatic antioxidant was observed when cells were cotreated with H2O2 and this compound at 0.001 and 1 μM (p < 0.05) (Figure 5b). No effects were found after the addition of 3 (Figure 5c), but 4 and 5 presented interesting results (Figure 5d,e).
Figure 5 Effect of S. tubulifera metabolites in the GSH content of human neuroblastoma cells. SH-SY5Y cells were treated with compounds for 6 h with and without 150 μM H2O2. GSH levels were monitored with Thiol Tracker Violet dye. (a) Compound 1, (b) compound 2, (c) compound 3, (d) compound 4, and (e) compound 5 results. Vitamin E (Vit E) at 25 μM was used as a positive control. Mean ± SEM of three experiments performed in triplicate. Data presented as the percentage of untreated control cells and compared by one-way ANOVA and Dunnett’s tests. ^##p < 0.01 compared to control cells. *p < 0.05 compared to cells treated with H2O2 alone.
as §1
Thiol Tracker Violet was used to measure intracellular GSH levels, following the manufacturer’s instructions. Briefly, human neuroblastoma cells were rinsed twice with PBS and the fluorescence dye at 10 μM was added. The plate was incubated for 30 min at 37 °C and 300 rpm, and the fluorescence was measured at 404 nm excitation and 526 nm emission in a plate reader. All experiments were performed three independent times in triplicate.

[3] = tested on: ERK; assay: ERK activation (phosphorylated/total) by Western blot; assay type: cell-based, human
From the text: Considering that CypD has several upstream regulators, which are also considered mPTP modulators,[10] the study was continued by evaluating if S. tubulifera metabolites were affecting the activation of two kinases involved in the control of mPTP by CypD, ERK, and GSK3β (Figure 7). Regarding ERK, its activation has been related to the inhibition of CypD-mediated mPTP opening. Therefore, the phosphorylated state of residues implicated in ERK activation (Thr202, Tyr204, Thr185, and Tyr187) was determined, as well as its total levels. Any of the compounds were able to activate ERK under neither physiological nor oxidative conditions (Figure 7a,b). However, 3 inhibited the kinase in both situations, with levels of 78.6 ± 4.8% (p < 0.05) and 67.3 ± 9.4% (p < 0.01), respectively. […] On the other hand, GSK3β inhibition results in a reduction in mPTP opening since the kinase binds to CypD, decreasing its interaction with mPTP components.[10] In the case of GSK3β, Ser9 phosphorylation was determined, a residue implicated in kinase inhibition (Figure 7c,d).
Figure 7 Analysis of compound effects on CypD upstream regulators. SH-SY5Y cells were treated with 1–5 at 0.001 μM for 6 h, and their effects on kinase activation were evaluated. […] Kinase expression was calculated as the ratio between phosphorylated and total levels. […] Data expressed as the percentage of untreated control cells and H2O2 control. […]

[4] = tested on: CypD; assay: CypD expression by Western blot
From the text: (b) CypD expression after treatment with S. tubulifera metabolites. (c) Effect of compounds on the CypD expression under oxidative stress conditions. […] Protein band expression was normalized by actin levels. Results are mean ± SEM of three replicates carried out in duplicate. Data expressed as the percentage of untreated control cells and H2O2 control. Values compared by one-way ANOVA and Dunnett’s tests. ^#p < 0.05 and ^##p < 0.01 compared to control cells. *p < 0.05 and **p < 0.01 compared to cells treated with H2O2 alone.
In this context, the expression of this protein was analyzed after treatment with compounds. CypD cytosolic levels were evaluated after treatment with 1–5 alone for 6 h and after the coaddition of diterpenes and H2O2 to get a complete insight into diterpene mitochondria-related effects.
SH-SY5Y cells were cultured in 12-well plates at 1 × 10^6 cells per well and allowed to settle down for 24 h.
Cells were washed twice with ice-cold PBS, and a hypotonic solution was added (20 mM tris–HCl pH 7.4, 10 mM NaCl, and 3 mM MgCl2, containing phosphatase and protease inhibitor cocktail). Cells were incubated for 15 min on ice and centrifuged at 3000 rpm and 4 °C for 15 min. The supernatant was collected as the cytosolic fraction, and protein concentration was quantified with the Direct Detect instrument (Merck Millipore, Darmstadt, Germany).[15]
Electrophoresis was resolved in 4–20% sodium dodecyl sulfate polyacrylamide gels (Biorad, Hercules, CA), containing 15 μg of cytosolic protein from each sample. The Trans-Blot semidry transfer cell (Biorad) was used to transfer proteins to poly(vinylidene difluoride) (PVDF) membranes (Merck Millipore). Snap i.d. system (Merck Millipore) was used for membrane blocking and antibody incubation. […] Immunoreactive bands were detected with Supersignal West Pico Luminiscent Substrate and Supersignal West Femto Maximum Sensitivity Substrate. Diversity GeneSnap system and software (Syngene, Cambridge, U.K.) were used for protein band detection. Experiments were performed three independent times in duplicate.

[5] = target: human CypD (Homo sapiens, UniProt P30405); assay: Surface plasmon resonance binding to immobilized CypD; conditions: for kon: read-out: ka, CypD
Chain of human CypD (P30405 30-207): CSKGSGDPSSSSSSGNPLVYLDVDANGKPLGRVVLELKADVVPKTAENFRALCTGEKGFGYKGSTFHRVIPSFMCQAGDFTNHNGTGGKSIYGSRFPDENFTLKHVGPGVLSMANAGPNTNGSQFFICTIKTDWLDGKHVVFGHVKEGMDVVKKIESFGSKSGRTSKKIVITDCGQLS
Protocol: With this objective, surface plasmon resonance (SPR) experiments were performed. CypD was immobilized in the sensor surface as a ligand, and 1–5 were injected as analytes. […] For immobilization, amine groups were activated with 1-ethyl-3-(3-dimethylaminopropyl)carbodiimide hydrochloride (EDC) and N-hydroxysuccinimide (NHS) and 50 μg/mL of human CypD dissolved in 5 mM sodium acetate (pH 4.5) was added. […] All of the assays were carried out with phosphate-buffered saline (PBS)—0.05% Tween (pH 7.2) as the running buffer, with a flow rate of 20 μL/min at 24 °C.
The left panels present association curves obtained by the addition of compounds over immobilized CypD and subtraction of their respective solvent control. The right panels show fitting curves for equilibrium binding. Representative graphs of one independent replicate. […] All injections were performed using PBS, 0.05% Tween (pH 7.2) as the running buffer. Kinetic equilibrium dissociation constants (KD) and fitting curves were obtained with TraceDrawer software.
(§2) SPR measurements were performed using the MP-SPR Navi 210A VASA instrument with SPR Navi Control software (BioNavis, Tampere, Finland). All of the analyses were carried out in three-dimensional (3D) carboxymethyl dextran hydrogel-coated (CMD-3DM) sensors (BioNavis). PBS, 0.05% Tween (pH 7.2) was used as the running buffer for sensor activation, protein immobilization, and analyte injection. All buffers were degassed and filtered by 0.22 μm before use. The flow rate and temperature were set at 20 μL/min and 24 °C, respectively. A commercial Amine Coupling Kit (Xantec bioanalytics GmbH, Düsseldorf, Germany) was used for sensor activation and Cyps immobilization. The chip surface was preconditioned with 2 M NaCl and 0.01 M NaOH. Then, the surface was activated by the addition of 0.2 M 1-ethyl-3-(3-dimethylaminopropyl)carbodiimide hydrochloride (EDC) and 0.05 M N-hydroxysuccinimide (NHS). After activation, 50 μg/mL of CypA or CypD dissolved in 5 mM sodium acetate buffer (pH 4.5) were injected for immobilization on the sensor surface. […] Compound injections were performed in serial mode, and the reference channel signal was subtracted from the analyte sensorgram. Data were processed with MP-SPR Navi Data Viewer (BioNavis), and KD values were obtained using the 1:1 Langmuir model with mass transport considerations of TraceDrawer software (RidgeView Instruments Ab, Uppsala, Sweden). All of the experiments were performed three independent times.

[6] = target: Human CypA (Homo sapiens, UniProt P62937); assay: Surface plasmon resonance binding to immobilized CypA; conditions: for Kd: CypA, SPR, 1:1 Langmuir model, PBS-T pH 7.2, 24 °C; for kon: read-out: ka, CypA
Chain of Human CypA (P62937 whole entry): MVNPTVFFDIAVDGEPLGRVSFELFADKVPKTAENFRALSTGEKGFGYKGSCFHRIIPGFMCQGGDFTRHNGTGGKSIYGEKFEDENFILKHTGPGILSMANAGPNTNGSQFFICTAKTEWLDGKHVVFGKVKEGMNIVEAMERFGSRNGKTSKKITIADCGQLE
Protocol: The protein was immobilized on the sensor surface by amino coupling, as described above (Figure S7), and compounds at several concentrations were added. The same conditions set for CypD were used for CypA experiments, with a flow rate of 20 μL/min and PBS-T (pH 7.2) as the running buffer.
Figure 9 Binding of compounds to CypA measured by surface plasmon resonance. The left panels present association curves obtained by the addition of compounds over immobilized CypA and subtraction of their respective vehicle signal. The right panels show fitting curves for equilibrium binding. Representative graphs of one independent replicate. […] Kinetic equilibrium dissociation constants (KD) and fitting curves were obtained with TraceDrawer software.
as §2

[7] = tested on: mitochondrial permeability transition pore (mPTP); conditions: 0.25 h, 0.001 µM
Protocol: (§3) SH-SY5Y cells were treated for 15 min with 1–5, and 1 mM tert-butyl hydroperoxide (TBHP) was used to open the pore. Cells were loaded with calcein-AM, which accumulates in cytosol and cell compartments and with CoCl2 that quenches cytosolic fluorescence but not the mitochondrial signal.[17] Then, fluorescence was analyzed by flow cytometry (Figure 6a). […] (a) Analysis of mPTP opening. Cells were treated with compounds at 0.001 μM for 15 min, and pore opening was induced with 1 mM TBHP. Calcein-AM and CoCl2 were used to measure mPTP aperture by flow cytometry. […] Values are presented as the percentage of control cells. Data are mean ± SEM of three independent experiments. Statistical differences determined by one-way ANOVA and Dunnett’s tests. ^###p < 0.001 compared to control cells. *p < 0.05 and **p < 0.01 compared to cells treated only with TBHP.
(§4) The inhibition of mPTP by compounds was determined with the MitoProbe Transition Pore Assay Kit, as previously described.[21] For this assay, cells were seeded in 12-well plates at 5 × 10^5 cells per well and allowed to grow for 24 h. Then, SH-SY5Y cells were detached with Detachin solution (Genlatis, San Diego), washed with PBS, and resuspended in PBS buffer with 0.6 mM CaCl2. Cells were loaded with 0.01 μM calcein-AM and incubated at 37 °C for 15 min. Then, 0.4 mM CoCl2 and compounds at 0.001 μM were added and cells were incubated for 15 min at 37 °C. After this incubation, cells were centrifuged, resuspended in 100 μL of calcium-free PBS, and kept on ice. Finally, TBHP at 1 mM was added for 3 min to the cells to induce the pore opening. […] The fluorescence of 10 000 events was analyzed with IDEAS Application vs 6.0 (Amnis Corporation, Luminex Corp).

[8] = tested on: mitochondrial permeability transition pore (mPTP); assay: mPTP opening, calcein-AM/CoCl2 flow cytometry; conditions: 0.001 μM, 15 min pretreatment, TBHP 3 min
Protocol: as §3, §4

Compound: CC1=C(O)C(=O)C[C@]2(C)[C@H]3CCc4cocc4[C@]3(C)CC[C@@H]12 [Compound 3]
- effect on ROS content ([1]; cotreatment with 150 μM H2O2, 6 h, all four concentrations 0.001-1 μM): diminished ROS levels
- effect on GSH content ([2]; compound alone and with 150 μM H2O2, 6 h): No effects
- ERK activation (phosphorylated/total) ([3]; compound 0.001 μM + 150 μM H2O2, 6 h, % of H2O2 control): 67.3 ± 9.4%
- ERK activation (phosphorylated/total) ([3]; compound alone 0.001 μM, 6 h, % of untreated control cells): 78.6 ± 4.8%
- effect on CypD expression ([4]; 0.001 μM): did not affect CypD expression
- Kd [5]: 7 ± 0.04 µM
- kon [5]: 3750 M⁻¹ s⁻¹
- Kd [6]: 6.39 µM and 6.4 µM
- kon [6]: 3190 M⁻¹ s⁻¹

Compound: Vitamin E [Vit E, reference compound]
- reduction in ROS release with respect to cells treated only with H2O2 ([1]; Vit E 25 μM, 150 μM H2O2, 6 h): 24%

Compound: C[C@]12C=C(O)C(=O)[C@](C)(CO)[C@@H]1CC[C@@]1(C)c3cocc3CC[C@H]21 [Compound 5, spongian diterpene 17]
- GSH content ([2]; compound 0.001 μM): 110.9 ± 10.0%
- GSH content ([2]; compound 0.1 μM): 118.9 ± 12.0%
- calcein fluorescence (mPTP opening) [7]: 90.3 ± 5.3%
- CypD expression under oxidative damage ([4]; compound 0.001 μM + 150 μM H2O2, 6 h, % of H2O2 control cells): about 54%
- inhibition of mPTP opening after oxidative injury [8]: able to inhibit mPTP opening
- Kd [5]: 2.97 ± 0.01 µM
- selectivity between CypD and CypA (KD values) ([5]; SPR, CypD versus CypA): selectivity toward the mitochondrial isoform
- kon [5]: 10000 M⁻¹ s⁻¹
- maximum SPR signal, CypA [6]: 13.6 mdeg
- Kd [6]: 4.34 µM and 4.3 µM
- kon [6]: 3590 M⁻¹ s⁻¹
